From patent US5036097A, “Phenylbutyl nitrone compositions and methods for prevention of gastric ulceration” (Oklahoma Medical Research Foundation, priority 1990, dated 1991) come the findings set out here.

The test system of the assay is piroxicam-induced gastric ulcers. Briefly: suppression of piroxicam-induced gastric ulcers by interventions (PBN, free radical scavengers, ascorbate). It is filed as in vivo, rat (male Sprague-Dawley). Here is the method: FIG. 2 is a graph of % control ulceration from piroxicam versus the % ulceration in the presence of free radical scavengers. The […] scavenger dimethylthiourea (DMTU, 500 mg/kg i.p.) was given 24 hours and 1 hour before piroxicam. […] The antioxidant butylated hydroxytoluene (BHT, 25 mg/kg/day i.p. in corn oil) was given for three days before and again 1 hour before piroxicam. The % control ulceration is determined by averaging the ratios of cm^2 ulceration in control stomachs from rats given piroxicam alone, and multiplying×100. +P< 0.01 compared to piroxicam alone.
Male Sprague-Dawley rats (Charles River, Wilmington, Mass.) weighing 300-325 g were housed individually in wire bottomed cages to prevent ingestion of hair and feces. Animals were maintained without food for 48 hours and without water for 24 hours prior to each experiment. Piroxicam or aspirin and other NSAIDS were suspended in a vehicle of 1% carboxymethylcellulose, 0.1% Tween 80 and 0.15 M HCl, and administered in a volume of 1 ml on the morning of study by oral gavage using an 18 gauge curved blunt needle (Popper and Sons, New Hyde Park, N.Y.). One ml of vehicle alone was administered for control experiments. HCl was added to the vehicle to insure an acid environment in the stomach in all studies. […] Four hours after the administration of NSAID or vehicle, rats were euthanized with sodium pentobarbital (100 mg/kg IP), and the surface area of ulceration per stomach was quantitated using morphometric techniques. Stomachs were removed, the lumen was exposed by an incision along the radius of greater curvature, and the stomach was washed in phosphate buffered saline. The luminal surface was laid out on a flat surface with gross folds removed by gentle distension. The percentage of surface involved with submucosal hemorrhage was then determined by point counting, as described by Weibel, E. R. Stereological Methods: Practical Methods for Biological Morphometry. Academic Press, New York 1980. This was done by tabulation of the percentage of points over ulcerations using a point counting eyepiece graticle (16×16 points in a square format). At the 12X magnification used on the Wild dissecting microscope (Wild-Heerbrugg, Basel, Switzerland), the graticle covered a 1 cm^2 area of the surface. Four to five non-overlapping sampling sites were taken to fully cover the exposed surface. To determine the total luminal surface area, the outline of the outer boundary of the stomach was traced using a transparent acetate sheet, and the area was determined from planimetry. The surface area of ulcerated regions per stomach was then determined by multiplying the surface density of ulceration regions by the luminal surface area of the stomach.
Differences in total luminal surface area in cm^2, surface area of ulcerated regions per stomach and biochemical analyses between each treatment intervention and its corresponding untreated control group are compared using the Mann-Whitney U Test, Dixon, W. J., Massey, F. J., Jr. Introduction to statistical methods, 4th edition. (New York: McGraw Hill, 1983). […] In vitro studies are compared using the Student's unpaired T-test, Dixon, W. J., Massey, F. J., Jr. Introduction to statistical methods, 4th edition. (New York: McGraw Hill, 1983). Values are expressed as mean±SEM. Significance is assumed when P<0.05.
In each experiment, the surface area of gastric ulceration produced by piroxicam in 15 treated rats was compared to that in 15 rats of the same age and size that were fasted simultaneously but which received no intervention. Phenylbutyl nitrone (30 mg/kg) was given orally in water 1 hour before piroxicam and also added to vehicle when piroxicam was administered. When intervention were given with piroxicam, the pH of the final mixture was adjusted if necessary to equal that of piroxicam and vehicle alone.

Consider `CN1C(C(=O)Nc2ccccn2)=C(O)c2ccccc2S1(=O)=O` [piroxicam], for which the “ulceration (ascorbate experiment)” value (ascorbate-treated stomachs (with piroxicam) vs piroxicam alone, P<0.001) is recorded as 0.031±0.009 cm^2. For the same compound, the ulcerations/unit area (piroxicam 23 mg/kg only, or plus PBN 30 mg/kg orally 1 hour before and with piroxicam, p<0.0052) amounted to 0.229±0.145 ulcerations/unit area.
